# Like-named read-outs stand apart in the source and are kept apart here.
# Assays:
# [1] = target: T1, human progesterone receptor-A [PRA] isoform (Homo sapiens, UniProt P06401); experiment: Radioligand binding with human progesterone receptor cytosol ([3H]-progesterone competition)
# T1 construct: host or cells: insect SF21 cells (baculovirus)
# T1 sequence (P06401 1-769 isoform P06401-2): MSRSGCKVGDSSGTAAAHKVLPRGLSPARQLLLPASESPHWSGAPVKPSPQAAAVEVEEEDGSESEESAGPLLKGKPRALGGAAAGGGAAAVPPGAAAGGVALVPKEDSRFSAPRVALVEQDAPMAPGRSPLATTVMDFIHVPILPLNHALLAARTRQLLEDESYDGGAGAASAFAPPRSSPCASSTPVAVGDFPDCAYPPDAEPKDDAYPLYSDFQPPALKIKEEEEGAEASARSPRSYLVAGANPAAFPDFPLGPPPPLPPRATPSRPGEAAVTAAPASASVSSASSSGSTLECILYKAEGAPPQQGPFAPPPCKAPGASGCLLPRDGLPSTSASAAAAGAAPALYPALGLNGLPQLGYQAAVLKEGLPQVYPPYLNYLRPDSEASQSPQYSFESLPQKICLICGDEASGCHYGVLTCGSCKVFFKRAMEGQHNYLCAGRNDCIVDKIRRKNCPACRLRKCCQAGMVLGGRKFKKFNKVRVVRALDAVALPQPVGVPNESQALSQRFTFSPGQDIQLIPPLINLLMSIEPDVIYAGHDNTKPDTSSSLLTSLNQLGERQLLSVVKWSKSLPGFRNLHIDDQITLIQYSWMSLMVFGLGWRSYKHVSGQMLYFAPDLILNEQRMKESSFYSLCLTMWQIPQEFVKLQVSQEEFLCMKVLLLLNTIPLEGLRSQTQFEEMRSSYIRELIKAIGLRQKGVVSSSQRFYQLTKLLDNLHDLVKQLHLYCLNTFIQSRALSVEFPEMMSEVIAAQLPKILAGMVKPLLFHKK
# [2] = target: T2, human glucocorticoid receptor-α [GRX] isoform (Homo sapiens, UniProt P04150); experiment: Radioligand binding with human glucocorticoid receptor cytosol ([3H]-dexamethasone competition)
# T2 construct: host or cells: insect SF21 cells (baculovirus)
# T2 sequence (P04150 1-777): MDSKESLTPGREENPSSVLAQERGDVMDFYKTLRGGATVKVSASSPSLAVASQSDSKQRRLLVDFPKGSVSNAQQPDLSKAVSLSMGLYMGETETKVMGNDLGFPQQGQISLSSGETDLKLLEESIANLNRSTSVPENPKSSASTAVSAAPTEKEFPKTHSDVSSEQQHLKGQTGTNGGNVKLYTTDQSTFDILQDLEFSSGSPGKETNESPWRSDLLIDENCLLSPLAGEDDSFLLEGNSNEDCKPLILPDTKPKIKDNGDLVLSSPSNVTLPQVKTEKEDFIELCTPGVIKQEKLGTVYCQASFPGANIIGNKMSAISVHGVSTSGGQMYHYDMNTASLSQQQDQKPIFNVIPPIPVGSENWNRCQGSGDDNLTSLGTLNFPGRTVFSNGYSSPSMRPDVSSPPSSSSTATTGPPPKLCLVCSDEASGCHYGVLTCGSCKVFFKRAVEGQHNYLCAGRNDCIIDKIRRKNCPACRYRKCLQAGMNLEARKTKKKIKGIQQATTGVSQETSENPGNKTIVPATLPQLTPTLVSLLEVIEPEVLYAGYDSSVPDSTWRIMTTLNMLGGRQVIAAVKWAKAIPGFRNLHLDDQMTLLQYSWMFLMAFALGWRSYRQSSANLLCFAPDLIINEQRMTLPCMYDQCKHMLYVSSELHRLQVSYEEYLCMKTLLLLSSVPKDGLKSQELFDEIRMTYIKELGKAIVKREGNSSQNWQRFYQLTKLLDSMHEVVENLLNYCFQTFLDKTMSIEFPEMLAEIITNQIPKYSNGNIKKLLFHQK
# [3] = PRA cytosol expressed in insect SF21 cells, [3H]Prog ~0.8 nM, 4° C. overnight, Ki by Cheng-Prusoff, KL ~4.5 nM, read-out: Ki (nM) PR
# [4] = GRX cytosol expressed in insect SF21 cells, [3H]-Dex ~0.9 nM, 4° C. overnight, Ki by Cheng-Prusoff, KL ~[…], read-out: Ki (nM) GR
SMILES,"Ki [1, 3]","Ki [2, 4]",further results
COc1cccc2c1-c1ccc3c(c1C(=Cc1c(Cl)cccc1Cl)O2)C(C)=CC(C)(C)N3 [Example 125],≥ 10000 nM,36.6 nM,
"COc1c(O)ccc2c1-c1ccc3c(c1C(Cc1ccc(F)cc1)O2)C(C)=CC(C)(C)N3 (centres unmarked) [Example 445, 2,5-Dihydro-9-hydroxy-10-methoxy-2,2,4-trimethyl-5-(4-(fluorophenyl)methyl)-1H-[1]benzopyrano[3,4-f]quinoline]",3470 nM,4 nM,
"COc1cccc2c1-c1ccc3c(c1C(CC=C1CCCC1)O2)C(C)=CC(C)(C)N3 (centres unmarked) [Example 188, 2,5-Dihydro-10-methoxy-5-(2-cyclopentylidenylethyl)-2,2,4-trimethyl-1H-[1]benzopyrano[3,4-f]quinoline]",5300 nM,,Ki ([2]; Ki (nM) GR): 4.9 nM
"C=CCC1Oc2ccc(OC(=O)CCC(=O)N3CCOCC3)c(OC)c2-c2ccc3c(c21)C(C)=CC(C)(C)N3 (centres unmarked) [Example 380, 2,5-Dihydro-9-(4-N-morpholino-4-oxo-butanoyloxy)-10-methoxy-2,2,4-trimethyl-5-(2-propenyl)-1H-[1]benzopyrano[3,4-f]quinoline]",204 nM,1.2 nM,
"CC1=CC(C)(C)Nc2ccc3c(c21)C(c1ccccc1)Oc1ccc(O)c(Cl)c1-3 (centres unmarked) [Example 217, 10-Chloro-9-hydroxy-5-phenyl-2,2,4-trimethyl-1H-2,5-dihydro-[1]benzopyrano[3,4-f]quinoline]",65.1 nM,1 nM,
"COc1ccc(C2Oc3cccc(OC)c3-c3ccc4c(c32)C(C)=CC(C)(C)N4)s1 (centres unmarked) [Example 40, 2,5-Dihydro-10-methoxy-2,2,4-trimethyl-5-(5-methoxy-2-thienyl)1H-[1]benzopyrano[3,4-f]quinoline]",18100 nM,18 nM,
"COc1cccc2c1-c1ccc3c(c1C(CC(=O)C(C)(C)C)O2)C(C)=CC(C)(C)N3 (centres unmarked) [Example 43, 1-(2,5-Dihydro-10-methoxy-2,2,4-trimethyl-1H-[1]benzopyrano[3,4-f]quinolin-5yl)-3,3-dimethyl-2-butanone]",≥ 10000 nM,72 nM,
"COc1cccc2c1-c1ccc3c(c1C(c1ccc(F)cc1)O2)C(C)=CC(C)(C)N3 (centres unmarked) [Example 30, 5-(4-Fluorophenyl)-2,5-dihydro-10-methoxy-2,2,4-trimethyl-1H-[1]benzopyrano[3,4-f]quinoline]",7920 nM,13 nM,
"CCc1cccc2c1-c1ccc3c(c1C(c1cc(Cl)cc(Cl)c1)O2)C(C)=CC(C)(C)N3 (centres unmarked) [Example 72, 5-(3,5-Dichlorophenyl)-10-ethyl-2,5-dihydro-2,2,4-trimethyl-1H-[1]benzopyrano[3,4-f]quinoline]",1450 nM,17.8 nM,
"COc1cccc2c1-c1ccc3c(c1[C@H]([C@@H]1C=CCCC1)O2)C(C)=CC(C)(C)N3 [Example 391, (−)(5S,3′S)2,5-Dihydro-10-methoxy-2,2,4-trimethyl-5-(cyclohexen-3-yl)-1H-[1]benzopyrano[3,4-f]quinoline]",,,"Ki ([2]; Ki (nM) GR, GRX cytosol expressed in insect SF21 cells, [3H]-Dex ~0.9 nM, 4° C. overnight, Ki by Cheng-Prusoff, KL ~[…]): 1.7 nM"
"COc1cccc2c1-c1ccc3c(c1C(c1cccc(C(F)(F)F)c1)O2)C(C)=CC(C)(C)N3 (centres unmarked) [Example 21, 2,5-Dihydro-10-methoxy-2,2,4-trimethyl-5-[3-(trifluoromethyl)phenyl]-1H-[1]benzopyrano[3,4-f]quinoline]",4020 nM,10.7 nM,
"COc1cccc2c1-c1ccc3c(c1C(C1CCCCC1=O)O2)C(C)=CC(C)(C)N3 (single isomer, unassigned) [Example 142, 2,5-Dihydro-10-methoxy-5-(1-oxo-2-cyclohexyl)-2,2,4-trimethyl-1H-[1]benzopyrano[3,4-f]quinoline]",≥ 10000 nM,51 nM,
"C=CCC1Oc2ccc(OC(C)=O)c(OC)c2-c2ccc3c(c21)C(C)=CC(C)(C)N3 (centres unmarked) [Example 295, 2,5-Dihydro-9-acetoxy-10-methoxy-2,2,4-trimethyl-5-(2-propenyl)-1H-[1]benzopyrano[3,4-f]quinoline]",59.3 nM,0.67 nM,
"COc1cccc2c1-c1ccc3c(c1C(C1C=C(COC(C)=O)CCC1)O2)C(C)=CC(C)(C)N3 [Example 163, rel (5R, 3′R) 2,5-Dihydro-10-methoxy-5-(1-acetoxymethyl-3-cyclohexenyl)-2,2,4-trimethyl-1H-[1]benzopyrano[3,4-f]quinoline]",≥ 10000 nM,2.6 nM,
"C=CCC1Oc2ccc(OC(=O)CCC(=O)N3CCCCC3)c(OC)c2-c2ccc3c(c21)C(C)=CC(C)(C)N3 (centres unmarked) [Example 379, 2,5-Dihydro-9-(4-N-piperidino-4-oxo-butanoyloxy)-10-methoxy-2,2,4-trimethyl-5-(2-propenyl)-1H-[1]benzopyrano[3,4-f]quinoline]",175 nM,1.4 nM,
COc1c(O)ccc2c1-c1ccc3c(c1[C@H]([C@@H]1C=CCC1)O2)C(C)=CC(C)(C)N3 [Example 252],102 nM,0.39 nM,
"COc1cccc2c1-c1ccc3c(c1C(c1cccc(OC(=O)N(C)C)c1)O2)C(C)=CC(C)(C)N3 (centres unmarked) [Example 15, [3-(2,5-Dihydro-10-methoxy-2,2,4-trimethyl-1H-[1]benzopyrano[3,4-f]quinolin-5-yl)phenyl]dimethylcarbamate]",,,Ki ([1]; Ki (nM) PR): ≥ 10000 nM; Ki ([2]; Ki (nM) GR): 2.5 nM
"C#CCC1Oc2cccc(OC)c2-c2ccc3c(c21)C(C)=CC(C)(C)N3 (centres unmarked) [Example 66, 2,5-Dihydro-10-methoxy-2,2,4-trimethyl-5-(2-propynyl)-1H-[1]benzopyrano[3,4-f]quinoline]",,2.7 nM,
"CCCC1Oc2cccc(OC)c2-c2ccc3c(c21)C(C)=CC(C)(C)N3 (centres unmarked) [Example 54, 2,5-Dihydro-10-methoxy-2,2,4-trimethyl-5-propyl-1H-[1]benzopyrano[3,4-f]quinoline]",,6.6 nM,
"COc1c(O)ccc2c1-c1ccc3c(c1[C@@H](C1CCCC1)O2)C(C)=CC(C)(C)N3 [Example 265, (+)(R)5-Cyclopentyl-2,5-dihydro-9-hydroxy-10-methoxy-2,2,4-trimethyl-1H-[1]benzopyrano[3,4-f]quinoline]",,767 nM,
"COc1cccc2c1-c1ccc3c(c1C(CN)O2)C(C)=CC(C)(C)N3 (centres unmarked) [Example 206A, 2,5-Dihydro-10-methoxy-5-(aminomethyl)-2,2,4-trimethyl-1H-[1]benzopyrano[3,4-f]quinoline]",,4190 nM,
"C=CCC1Oc2cccc(C=NO)c2-c2ccc3c(c21)C(C)=CC(C)(C)N3 (centres unmarked) [Example 446, 10-Carbaldehyde Oxime-5-(2-propenyl)-2,5-dihydro-2,2,4-trimethyl-1H-[1]benzopyrano[3,4-f]quinoline]",,33 nM,
"C=CCC1Oc2cccc(OCc3ccccc3)c2-c2ccc3c(c21)C(C)=CC(C)(C)N3 (centres unmarked) [Example 447, 10-Benzyloxy-5-(2-propenyl)-2,5-dihydro-2,2,4-trimethyl-1H-[1]benzopyrano[3,4-f]quinoline]",,7100 nM,
"COc1cccc2c1-c1ccc3c(c1C(C=C(C)C)O2)C(C)=CC(C)(C)N3 (centres unmarked) [Example 324, 2,5-Dihydro-10-methoxy-5-(2-methylpropenyl)-2,2,4-trimethyl-1H-[1]benzopyrano[3,4-f]quinoline]",,24 nM,
"CCCC1Oc2ccc(O)c(Cl)c2-c2ccc3c(c21)C(C)=CC(C)(C)N3 (centres unmarked) [Example 411, 2,5-Dihydro-9-hydroxy-10-chloro-2,2,4-trimethyl-5-propyl-1H-[1]benzopyrano[3,4-f]quinoline]",,0.68 nM,

# — US6506766B1 (Abbott Laboratories, priority 1998, dated 2003)
